Data as given in patent US8530419B2, “Process for the synchronization of ovulation for timed breeding without heat detection” (priority 2003, dated 2013).

Experiments:
Assay type in all cases: in vivo, swine
[1] = tested on: ovariectomized estrogen primed gilt; experiment: Dose response study of LH release in ovariectomized estrogen primed gilt model (RIA); conditions: single injection of 50 mcg deslorelin in SAIB
Experimental: A dose response study was performed using deslorelin in SAIB in an ovariectomized estrogen primed gilt model (Barb, et at (1999) Proceed. Int'l. Symp. Control, Rel. Bioact. Mater., 26).

postpartum sows [2] = experiment: Timed deslorelin injection 96 hours post-weaning, single timed insemination without estrus detection (Example 3)
Experimental: Approximately 170 postpartum sows were randomly divided into two equal groups comprised of controls and treated. Following weaning, the controls were detected for estrus and bred following the normal standard operating procedures for the farms on winch they resided. The treated sows received a 50 mcg dose of deslorelin in SAIB at 96 hours post-weaning and were bred with a single insemination 28+/−2 hours later with no regard to estrus detection. The sows were examined for pregnancy by ultrasound at 21 days and slaughtered around 28 days post breeding. The entire reproductive tract was removed and corpora lutea and embryos were counted.

postpartum sows [3] = experiment: Litter size after deslorelin treatment at three farm sites (Example 4); conditions: Tables 3, 4 and 5; regardless of estrus detection
Source text: Postpartum sows were randomly distributed into three different groups comprised of Controls, Treatment 1, and Treatment 2, with the exception of Site 3, which was divided into two groups, Control and Treatment 2. Control sows were detected for estrus following weaning, and bred following the normal standard operating procedures for the farms on which they resided. Treatment 1 sows were detected for estrus following weaning, and received a 50 mcg dose of deslorelin in the morning when standing and were bred by AI 4 hours later and again at 24+/−2 hours later. Treatment 2 sows received a 50 mcg dose of deslorelin in SAIB at 96 or 120 hours post-weaning and were bred with a single insemination 28+/−2 hours later with no regard to estrus detection.

CCNC(=O)[C@@H]1CCCN1C(=O)[C@H](CCCN=C(N)N)NC(=O)[C@H](CC(C)C)NC(=O)[C@@H](Cc1c[nH]c2ccccc12)NC(=O)[C@H](Cc1ccc(O)cc1)NC(=O)[C@H](CO)NC(=O)[C@H](Cc1c[nH]c2ccccc12)NC(=O)[C@H](Cc1cnc[nH]1)NC(=O)[C@@H]1CCC(=O)N1 [Deslorelin, deslorelin]
time at which LH returned to base level [1]: ≤ 18 h
LH peak ([1]; compared to Hansel et al. (1973)): about twice normal value
Pregnancy Rate (postpartum sows [2]; 50 mcg in SAIB at 96 hours post-weaning, single insemination 28+/-2 hours later, no estrus detection): 71%
Embryo Survival (postpartum sows [2]; 50 mcg in SAIB at 96 hours post-weaning, slaughtered around 28 days post breeding): 64%
pregnancy rates (in words) (postpartum sows [2]; single timed injection post-weaning, single timed insemination, no estrus detection): normal pregnancy rates were attained
litter sizes (in words) (postpartum sows [3]): normal litter sizes
